Assay results taken from patent publication US7618964B2, “Benzamide derivatives, their manufacture and use as pharmaceutical agents” (Hoffmann-La Roche Inc., priority 2004, dated 2009).

Experiments:
Lck (p56^lck, active) = molecular target: T1, Lck (p56^lck, active) (Homo sapiens, UniProt P06239); assay: SRC-Inhibitor-Assay (time-resolved fluorescence kinase assay), Lck; assay type: biochemical; details: ATP 5 μM, peptide 10 μM, enzyme 2.5 U/ml, pre-incubated 15 min at 15° C.
T1 construct: purchased UBI, Upstate Biotech, Inc
T1 sequence (P06239 whole entry, species assumed): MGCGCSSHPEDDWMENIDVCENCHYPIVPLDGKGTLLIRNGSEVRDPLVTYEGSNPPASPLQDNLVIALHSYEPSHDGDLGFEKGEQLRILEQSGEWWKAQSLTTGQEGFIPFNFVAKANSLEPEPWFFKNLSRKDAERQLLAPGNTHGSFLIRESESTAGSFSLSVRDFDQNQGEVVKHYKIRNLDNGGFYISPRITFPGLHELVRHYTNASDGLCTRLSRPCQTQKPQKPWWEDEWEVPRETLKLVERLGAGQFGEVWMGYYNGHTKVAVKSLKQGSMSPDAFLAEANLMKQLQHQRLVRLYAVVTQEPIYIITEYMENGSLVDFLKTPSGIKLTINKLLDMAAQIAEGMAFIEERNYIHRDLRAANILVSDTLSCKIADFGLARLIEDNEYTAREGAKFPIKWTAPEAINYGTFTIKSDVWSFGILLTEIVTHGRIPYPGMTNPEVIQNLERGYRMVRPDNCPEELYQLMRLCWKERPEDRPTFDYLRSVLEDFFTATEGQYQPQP
Source text: (§1) The activity of the compounds according to this invention as inhibitors for the src-family tyrosine kinases was shown by using the following assay.
(§2) SRC-Inhibitor-Assay Parameters:
(§3) Time-resolved Fluorescence Assay: Reader: Perkin Elmer, Wallac Viktor 1420-040 multilabel counter; Liquid handling system: Beckman Coulter, Biomek 2000.
(§4) ATP, Tween™ 20, 4-(2-hydroxyethyl)-1-piperazineethanesulfonic acid (HEPES) were purchased from Roche Molecular Biochemicals, MgCl2 and MnCl2 were purchased from Merck Eurolab, Tris(2-carboxyethyl)phosphine hydrochloride (TCEP) was purchased from Pierce, 384 Well low volume fluorescence plates was purchased from Falcon.
(§5) At first the enzyme is pre-incubated for 15 min. at 15° C. in aqueous solution with corresponding amounts of inhibitors according to this invention. Then the phosphorylation reaction is started by adding a reaction mixture, containing ATP, Peptide and PT66, and subsequent shaking. The proceeding of this reaction is immediately monitored using time resolved fluorescence spectroscopy in a suitable well plate reader.
(§6) The IC50-values can be obtained from the reaction rates by using a non-linear curve fit (XLfit software (ID Business Solution Ltd., Guilford, Surrey, UK))

[1] = molecular target: T2, Src (p60^c-src, partially purified) (Homo sapiens, UniProt P12931); assay: SRC-Inhibitor-Assay (time-resolved fluorescence kinase assay), Src; assay type: biochemical; details: ATP 5 μM, peptide 10 μM, enzyme 2.5 U/ml, pre-incubated 15 min at 15° C.
T2 construct: purchased UBI, Upstate Biotech, Inc
T2 sequence (P12931 whole entry, species assumed): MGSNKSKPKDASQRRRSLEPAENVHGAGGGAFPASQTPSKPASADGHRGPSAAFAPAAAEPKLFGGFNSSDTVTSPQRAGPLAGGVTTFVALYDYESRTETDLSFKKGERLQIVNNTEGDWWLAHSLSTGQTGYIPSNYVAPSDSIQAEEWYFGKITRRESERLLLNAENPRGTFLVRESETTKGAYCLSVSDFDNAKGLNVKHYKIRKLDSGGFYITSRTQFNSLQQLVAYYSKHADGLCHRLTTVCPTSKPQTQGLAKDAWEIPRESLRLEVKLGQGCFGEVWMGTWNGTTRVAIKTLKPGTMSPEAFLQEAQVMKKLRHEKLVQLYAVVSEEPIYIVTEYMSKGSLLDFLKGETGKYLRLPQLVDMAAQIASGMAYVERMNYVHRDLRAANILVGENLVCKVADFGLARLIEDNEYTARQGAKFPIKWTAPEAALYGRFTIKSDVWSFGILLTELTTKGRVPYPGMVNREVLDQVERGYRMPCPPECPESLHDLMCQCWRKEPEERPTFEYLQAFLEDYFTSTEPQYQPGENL
Source text: as §1, §2, §3, §4, §5, §6

SMILES | IC50 (Lck (p56^lck, active)) [nM] | IC50 [1] [nM]
O=C(Nc1cnc2[nH]c(-c3cccs3)nc2c1)c1ccccc1Cl [Example 4-6, 2-Chloro-N-(2-thiophen-2-yl-3H-imidazo[4,5-b]pyridin-6-yl)-benzamide] | 40 to 9000 | 5 to 300
O=C(Nc1cnc2[nH]c(-c3ccccc3)nc2c1)c1cc([N+](=O)[O-])ccc1Cl [Example 1-5, 2-Chloro-5-nitro-N-(2-phenyl-3H-imidazo[4,5-b]pyridin-6-yl)-benzamide] | 1000 to 9000 | 300 to 3500
Nc1cccc(-c2nc3cc(NC(=O)c4ccccc4Cl)cnc3[nH]2)c1 [Example 10-1, N-[2-(3-Amino-phenyl)-3H-imidazo[4,5-b]pyridine-6-yl]-2-chloro-benzamide] | 40 to 9000 | 5 to 300
COCCOc1ccc(-c2nc3cc(NC(=O)c4ccccc4Cl)cnc3[nH]2)cc1 [Example 4-2, 2-Chloro-N-{2-[4-(2-methoxy-ethoxy)-phenyl]-3H-imidazo[4,5-b]pyridin-6-yl}-benzamide] | 40 to 9000 | 5 to 300
O=C(Nc1cnc2[nH]c(-c3ccsc3)nc2c1)c1ccccc1Cl [Example 4-7, 2-Chloro-N-(2-thiophen-3-yl-3H-imidazo[4,5-b]pyridin-6-yl)-benzamide] | 40 to 9000 | 5 to 300
Cc1ccc(-c2nc3cc(NC(=O)c4ccccc4Cl)cnc3[nH]2)cn1 [Example 7-2, 2-Chloro-N-[2-(6-methyl-pyridin-3-yl)-3H-imidazo[4,5-b]pyridine-6-yl]-benzamide] | 40 to 9000 | 5 to 300
O=C(Nc1cnc2[nH]c(-c3ccc(N4CCOCC4)cc3)nc2c1)c1ccccc1Cl [Example 4-5, 2-Chloro-N-[2-(4-morpholin-4-yl-phenyl)-3H-imidazo[4,5-b]pyridin-6-yl]-benzamide] | 49 | 7
Nc1ccc(Cl)c(C(=O)Nc2cnc3[nH]c(-c4ccccc4)nc3c2)c1 [Example 3-1, 5-Amino-2-chloro-N-(2-phenyl-3H-imidazo[4,5-b]pyridin-6-yl)-benzamide] | 40 to 9000 | 5 to 300
O=C(Nc1cnc2[nH]c(-c3ccc(N4CCOCC4)nc3)nc2c1)c1ccccc1Cl [Example 7-7, 2-Chloro-N-[2-(6-morpholin-4-yl-pyridin-3-yl)-3H-imidazo[4,5-b]pyridine-6-yl]-benzamide] | 40 to 9000 | 5 to 300
O=C(Nc1cnc2[nH]c(-c3ccccc3)nc2c1)c1ccccc1Cl [Example 1-1, 2-Chloro-N-(2-phenyl-3H-imidazo[4,5-b]pyridin-6-yl)-benzamide] | 481 | 21
O=C(Nc1cnc2[nH]c(-c3ccc4[nH]cnc4c3)nc2c1)c1ccccc1Cl [Example 7-5, N-[2-(1H-Benzoimidazol-5-yl)-3H-imidazo[4,5-b]pyridine-6-yl]-2-chloro-benzamide] | 40 to 9000 | 5 to 300
CN1CCN(c2ccc(-c3nc4cc(NC(=O)c5ccccc5Cl)cnc4[nH]3)cc2)CC1 [Example 4-8, 2-Chloro-N-{2-[4-(4-methyl-piperazin-1-yl)-phenyl]-3H-imidazo[4,5-b]pyridin-6-yl}-benzamide] | 40 to 9000 | 5 to 300
CCN(CC)CCOc1ccc(-c2nc3cc(NC(=O)c4ccccc4Cl)cnc3[nH]2)cc1 [Example 4-1, 2-Chloro-N-{2-[4-(2-diethylamino-ethoxy)-phenyl]-3H-imidazo[4,5-b]pyridin-6-yl}-benzamide] | 40 to 9000 | 5 to 300
COCCC(=O)Nc1cccc(-c2nc3cc(NC(=O)c4ccccc4Cl)cnc3[nH]2)c1 [Example 1-7, 2-Chloro-N-{2-[3-(3-methoxy-propionylamino)-phenyl]-3H-imidazo[4,5-b]pyridin-6-yl}-benzamide] | 40 to 9000 | 5 to 300
O=C(Nc1cnc2[nH]c(-c3ccccc3)nc2c1)c1ccccc1Br [Example 1-3, 2-Bromo-N-(2-phenyl-3H-imidazo[4,5-b]pyridin-6-yl)-benzamide] | 40 to 9000 | 5 to 300
COCC(COC)NC(=O)c1cccc(-c2nc3cc(NC(=O)c4ccccc4Cl)cnc3[nH]2)c1 [Example 6-3, 2-Chloro-N-(2-{3-[2-methoxy-1-methoxymethyl-ethylcarbamoyl]-phenyl}-3H-imidazo[4,5-b]pyridin-6-yl)-benzamide] | 40 to 9000 | 5 to 300
C[S+]([O-])c1cccc(-c2nc3cc(NC(=O)c4ccccc4Cl)cnc3[nH]2)c1 (centres unmarked) [Example 9-1, 2-Chloro-N-[2-(3-methanesulfinyl-phenyl)-3H-imidazo[4,5-b]pyridine-6-yl]-benzamide] | 40 to 9000 | 5 to 300
Cc1ccc([N+](=O)[O-])cc1C(=O)Nc1cnc2[nH]c(-c3ccccc3)nc2c1 [Example 1-4, 2-Methyl-5-nitro-N-(2-phenyl-3H-imidazo[4,5-b]pyridin-6-yl)-benzamide] | 1000 to 9000 | 300 to 3500
Cc1cccc(Cl)c1C(=O)Nc1cnc2[nH]c(-c3ccccc3)nc2c1 [Example 1-2, 2-Chloro-6-methyl-N-(2-phenyl-3H-imidazo[4,5-b]pyridin-6-yl)-benzamide] | 40 to 9000 | 5 to 300
O=C(Nc1cnc2[nH]c(-c3ccccc3)nc2c1)c1ccccc1 [Example 1-6, N-(2-Phenyl-3H-imidazo[4,5-b]pyridin-6-yl)-benzamide] | 40 to 9000 | 5 to 300
Cc1ccc(N)cc1C(=O)Nc1cnc2[nH]c(-c3ccccc3)nc2c1 [Example 2-1, 5-Amino-2-methyl-N-(2-phenyl-3H-imidazo[4,5-b]pyridin-6-yl)-benzamide] | 160 | 135
CSc1cccc(-c2nc3cc(NC(=O)c4ccccc4Cl)cnc3[nH]2)c1 [Example 7-3, 2-Chloro-N-[2-(3-methylsulfanyl-phenyl)-3H-imidazo[4,5-b]pyridine-6-yl]-benzamide] | 40 to 9000 | 5 to 300

More lines, now with the values ahead:

IC50 (Lck (p56^lck, active)) [nM] | IC50 [1] [nM] | SMILES
40 to 9000 | 5 to 300 | Cc1ccccc1C(=O)Nc1cnc2[nH]c(-c3ccccc3)cc2c1 [Example 12-7, 2-Methyl-N-(2-phenyl-1H-pyrrolo[2,3-b]pyridine-5-yl)-benzamide]
40 to 9000 | 5 to 300 | COCCN(CCOC)c1ccc(-c2nc3cc(NC(=O)c4ccccc4Cl)cnc3[nH]2)cc1F [Example 13-1, N-(2-{4-[Bis-(2-methoxy-ethyl)-amino]-3-fluoro-phenyl}-3H-imidazo[4,5-b]pyridin-6-yl)-2-chloro-benzamide]
40 to 9000 | 5 to 300 | Cc1cccc(Cl)c1C(=O)Nc1cnc2[nH]c(-c3ccccc3)cc2c1 [Example 12-5, 2-Chloro-6-methyl-N-(2-phenyl-1H-pyrrolo[2,3-b]pyridine-5-yl)-benzamide]
40 to 9000 | 5 to 300 | O=C(Nc1cnc2[nH]c(-c3ccccc3)cc2c1)c1ccc(Cl)cc1Cl [Example 12-4, 2,4-Dichloro-N-(2-phenyl-1H-pyrrolo[2,3-b]pyridine-5-yl)-benzamide]
40 to 9000 | 5 to 300 | CC(=O)Nc1cccc(-c2nc3cc(NC(=O)c4ccccc4Cl)cnc3[nH]2)c1 [Example 11-1, N-[2-(3-Acetylamino-phenyl)-3H-imidazo[4,5-b]pyridine-6-yl]-2-chloro-benzamide]
40 to 9000 | 5 to 300 | COc1cc(OC)cc(C(=O)Nc2cnc3[nH]c(-c4ccccc4)cc3c2)c1 [Example 12-12, 3,5-Dimethoxy-N-(2-phenyl-1H-pyrrolo[2,3-b]pyridine-5-yl)-benzamide]
40 to 9000 | 5 to 300 | O=C(Nc1cnc2[nH]c(-c3ccccc3)cc2c1)c1ccccc1Cl [Example 12-1, 2-Chloro-N-(2-phenyl-1H-pyrrolo[2,3-b]pyridine-5-yl)-benzamide]
40 to 9000 | 5 to 300 | COCCOc1ccc(-c2cc3cc(NC(=O)c4ccccc4OC)cnc3[nH]2)cc1 [Example 12-14, 2-Methoxy-N-{2-[4-(2-methoxy-ethoxy)-phenyl]-1H-pyrrolo[2,3-b]pyridin-5-yl}-benzamide]
40 to 9000 | 5 to 300 | COCCCNc1cc(-c2nc3cc(NC(=O)c4ccccc4Cl)cnc3[nH]2)ccn1 [Example 14-1, 2-Chloro-N-{2-[2-(3-methoxy-propylamino)-pyridin-4-yl]-3H-imidazo[4,5-b]pyridin-6-yl}-benzamide]
